# Source: US9539284B2 (GLOBOASIA, LLC, priority 2006, dated 2017)
# “And” between values parts separate entries of the source, which are not always exact repeats. Identical values can stand only once. Like-named read-outs stand apart in the source and are kept apart here.
# Legend:
# [1] = Fe3+ content per 500 mg compound (selection criterion 3); assay type: physicochemical
# Text: 3. Appropriate equivalence of ferric ion per gram of compound. The potential ferric compound should contain enough ferric ions to effectively bind with dietary phosphate.
# [2] = cited from earlier work
# [3] = Harvey et al. 1998; cited from earlier work
Molecule,"Fe^3+ content per 500 mg compound ([1]; per 500 mg compound, unit mg)",pKa of anionic group [2],further results
O=C([O-])CN(CCN(CC(=O)[O-])CC(=O)O)CC(=O)[O-].[Fe+3] [ferric EDTA],81 mg,–,–
O=C([O-])CN(CCO)CCN(CC(=O)[O-])CC(=O)[O-].[Fe+3] [ferric HEDTA],85 mg,–,–
CC(=O)[O-].CC(=O)[O-].CC(=O)[O-].[Fe+3] [ferric acetate],–,–,Fe^3+ content per 500 mg compound [1]: 120 mg
CC(=O)/C=C(/C)[O-].CC(=O)/C=C(/C)[O-].CC(=O)/C=C(/C)[O-].[Fe+3] [ferric acetylacetonate],78 mg,–,–
O=C([O-])[O-].O=C([O-])[O-].O=C([O-])[O-].[Fe+3].[Fe+3] [ferric carbonate],–,10.3,Fe^3+ content per 500 mg compound [1]: 191 mg
C[N+](C)(C)CCO.O=C([O-])CC(O)(CC(=O)[O-])C(=O)[O-].[Fe+3] [ferric choline citrate],–,–,Fe^3+ content per 500 mg compound [1]: 79 mg
O=C[O-].O=C[O-].O=C[O-].[Fe+3] [ferric formate],–,pKa = 3.75,Fe^3+ content per 500 mg compound [1]: 147 mg
O=C([O-])/C=C/C(=O)[O-].O=C([O-])/C=C/C(=O)[O-].O=C([O-])/C=C/C(=O)[O-].[Fe+3].[Fe+3] [ferric fumarate],125 mg,pKa = 3.02,–
O=C([O-])CC(O)C(=O)[O-].O=C([O-])CC(O)C(=O)[O-].O=C([O-])CC(O)C(=O)[O-].[Fe+3].[Fe+3] (stereo not drawn) [ferric malate],110 mg,pKa = 3.4,–
CCCCC(CC)C(=O)[O-].CCCCC(CC)C(=O)[O-].CCCCC(CC)C(=O)[O-].[Fe+3] (stereo not drawn) [ferric octoate],58 mg,–,–
O=C([O-])C(=O)[O-].O=C([O-])C(=O)[O-].O=C([O-])C(=O)[O-].[Fe+3].[Fe+3] [ferric oxalate],142 mg,pKa = 1.25,–
NCC(=O)[O-].NCC(=O)[O-].NCC(=O)[O-].[Fe+3] [ferric triglycinate],–,pKa = 2.35,Fe^3+ content per 500 mg compound [1]: 100 mg
Cc1occc(=O)c1[O-].Cc1occc(=O)c1[O-].Cc1occc(=O)c1[O-].[Fe+3] [ferric trimaltol],65 mg,–,correcting iron deficiency [3]: capable of correcting iron deficiency
ferric ascorbate,121 mg,pKa = 4.04,–
ferric aspartate,62 mg,pKa = 1.99,–
ferric citrate [reference compound],114 mg,pKa = 6.4,–
ferric gluconate,44 mg,–,–
ferric histidinate,54 mg,–,–
ferric oleate,31 mg,–,–
ferric picolinate,66 mg,–,–
ferric tartrate,56 mg and 100 mg,–,"pKa of anionic group, pKa1 ([2]; first pKa): pKa1 = 2.98; pKa of anionic group, pKa2 ([2]; second pKa): pKa2 = 4.34"
